Test results from patent US6124287A, “Imidazo[1,2-a]quinoxalin-4-amines active as adenosine antagonists, process for their preparation and pharmaceutical compositions thereof” (Biomedica Foscama Industria Chimicofarmaceutica S.p.A., priority 1995, dated 2000).

Columns and labels:
A1 receptors [1] = molecular target: T1, A1 receptors (Rattus norvegicus, UniProt P25099); test: Binding on A1 receptors, rat brain synaptosomial membranes, [3H]-DPCPX; conditions: 0.3 nM [3H]-DPCPX, 1 h, 25° C., pH 7.4
T1 construct: preparations of synaptosomial membranes from rat brain; from tissue; host or cells: rat brain synaptosomal membranes
T1 sequence (P25099 1-326): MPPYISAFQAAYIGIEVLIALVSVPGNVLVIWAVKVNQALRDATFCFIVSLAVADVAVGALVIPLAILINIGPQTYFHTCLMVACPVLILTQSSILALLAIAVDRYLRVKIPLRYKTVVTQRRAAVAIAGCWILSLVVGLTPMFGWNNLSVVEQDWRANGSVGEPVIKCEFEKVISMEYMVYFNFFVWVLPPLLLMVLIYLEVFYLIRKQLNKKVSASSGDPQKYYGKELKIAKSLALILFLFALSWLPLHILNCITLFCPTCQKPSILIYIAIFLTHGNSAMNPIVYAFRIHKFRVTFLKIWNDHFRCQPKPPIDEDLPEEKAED
Protocol: (§1) Binding on the adenosine receptors.
The binding on A1 receptors has been carried out according to the method described in Naunyn-Schmied. Arch. Pharmacol. 1987, 336, 204 on preparations of synaptosomial membranes from rat brain by incubating 200 μg of membrane proteins for 1 h at 25° C. with the substance to be tested and 0.3 nM [^3 H]-DPCPX in 400 μl of 50 mM Tris.HCl pH=7.4. The non-specific binding has been determined with […].
(§2) The incubations were blocked by filtration by means of a cell-harvester and, after completion of the separation of the bound from the free, the radioactivity contents were evaluated by liquid scintillation. The concentration-inhibition curves were obtained by assaying the receptor displacement at at least ten different concentrations of the test substance (all the assays were carried out in triplicate). The tested substances were dissolved in dimethyl sulphoxide and diluted in 50 mM Tris.HCl buffer pH=7.4. The IC50 values have been determined by non-linear regression curves and transformed into Ki values according to the Cheng-Prusoff equation.

A1 receptors [2] = molecular target: T2, A1 receptors (Rattus norvegicus, UniProt P30543); test: Binding on receptors (printed A1) of rat striatal membranes, [3H]-CGS21680 + CPA; conditions: 5 nM [3H]-CGS21680, 50 nM CPA, 1 h, 25° C.
T2 construct: preparations of rat striatal membranes; from tissue; host or cells: rat striatal membranes
Protocol: as §1
The binding on […] receptors has been carried out according to the method described in FASEB J. 1989, 3, A1047 on preparations of rat striatal membranes by incubating 200 μg of membrane proteins for 1 h at 25° C. with the substance to be tested, 5 nM [^3 H]-CGS21680 and 50 nM CPA. The non-specific binding has been determined with 100 nM CPA.
as §2

Forced swim test = format: in vivo, Male ablino CD 1 mice; conditions: 1 h before immersion
Protocol: Forced swim test The test described by R. D. Porsolt et al. in Arch.Int.Pharmacodyn.Ther. 1977, 229, 327, has been carried out which is widely used as an animal model for the study of the antidepressant activity of new drugs. Male ablino CD 1 mice weighing 25-35 g were used. One hour before immersion in water, the test compound is intraperitoneally (i.p.) administered to the animal; the vehicle is administered to the control animals. The duration of permanence in water is 6'; from the 2nd to the 6th minute the time is measured during which the animal remains motionless. […] As the reference substance the tricyclic antidepressant drug desipramine was used.

Tail suspension test = format: in vivo, Male albino CD 1 mice; conditions: half an hour before test
Protocol: Tail suspension test The test described by L. Steru, et al. in Psychopharmacology 1985, 85, 367, also widely used as an animal model for the screening of antidepressant activity has been carried out. Male albino CD 1 mice weighing 25-35 g were used. Half an hour before the test, the animal is administered the test compound by the i.p. route; the control animals are administered the vehicle. The mouse is suspended from a horizontal bar at about 40 cm from the support plane by means of an adhesive tape applied at the end of the tail and secured to a hook. […] As the reference substance the tricyclic antidepressant drug desipramine was used.

adenosine receptors = conditions: cited from earlier work

T2 sequence (P30543 whole entry): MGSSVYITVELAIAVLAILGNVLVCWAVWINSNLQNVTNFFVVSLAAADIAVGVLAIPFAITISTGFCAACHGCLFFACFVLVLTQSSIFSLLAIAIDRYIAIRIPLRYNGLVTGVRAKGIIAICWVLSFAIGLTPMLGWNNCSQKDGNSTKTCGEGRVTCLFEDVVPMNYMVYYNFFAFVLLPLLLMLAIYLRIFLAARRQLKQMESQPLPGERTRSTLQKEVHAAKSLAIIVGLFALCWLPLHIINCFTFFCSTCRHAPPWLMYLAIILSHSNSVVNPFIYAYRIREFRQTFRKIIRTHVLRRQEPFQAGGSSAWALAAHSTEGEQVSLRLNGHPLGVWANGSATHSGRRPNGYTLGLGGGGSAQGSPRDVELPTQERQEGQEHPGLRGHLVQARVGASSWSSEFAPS

CCC(CC)Nc1nc2ccccc2n2c(C)cnc12 [COMPOUND EX. 5, 4-(1-ethylpropylamino)-1-methylimidazo[1,2-a] quinoxaline]
Ki (A1 receptors [1]): 54 nM

Cc1cnc2c(NC3CCCC3)nc3ccccc3n12 [COMPOUND EX. 9, 4-cyclopentylamino-1-methyl imidazo [1,2-a]quinoxaline]
Ki (A1 receptors [2]): 2500 nM | % variation immobility time vs. C. (Forced swim test; 0.001 mg/kg i.p.): -32.8% | % variation immobility time vs. C. (Forced swim test; 0.01 mg/kg i.p.): -45.3% | % variation immobility time vs. C. (Tail suspension test; 0.001 mg/kg i.p.): -26.7% | % variation immobility time vs. C. (Tail suspension test; 0.01 mg/kg i.p.): -41.1% | % variation immobility time vs. C. (Tail suspension test; 0.1 mg/kg i.p.): -64.3% | Ki (A1 receptors [1]): 7.9 nM

Cc1cnc2c(N3CCCCC3)nc3ccccc3n12 [COMPOUND EX. 13, 1-methyl-4-piperidinylimidazo[1,2-a]quinoxaline]
% variation immobility time vs. C. (Forced swim test; 0.1 mg/kg i.p.): -23.5% | % variation immobility time vs. C. (Forced swim test; 1 mg/kg i.p.): -70.7%

Cc1cnc2c(N3CCN(C)CC3)nc3ccccc3n12 [COMPOUND EX. 16, 1-methyl-4(N'-methylpiperazinyl)imidazo[1,2-a]quinoxaline]
% variation immobility time vs. C. (Forced swim test; 0.1 mg/kg i.p.): -22.4% | % variation immobility time vs. C. (Forced swim test; 1 mg/kg i.p.): -51.4%

Clc1ccc2nc(NC3CCCC3)c3nccn3c2c1 [COMPOUND EX. 18, 4-cyclopentylamino-8-chloroimidazo[1,2-a]quinoxaline]
% variation immobility time vs. C. (Forced swim test; 1 mg/kg i.p.): -42.3% | % variation immobility time vs. C. (Forced swim test; 10 mg/kg i.p.): -52.8% | Ki (A1 receptors [1]): 23.5 nM

Cc1cnc2c(NC3CCCCC3)nc3ccc(Cl)cc3n12 [COMPOUND EX. 21, 4-cyclohexylamino-8-chloro-1-methylimidazo[1,2-a]quinoxaline]
% variation immobility time vs. C. (Forced swim test; 0.001 mg/kg i.p.): -33.0% | % variation immobility time vs. C. (Forced swim test; 0.01 mg/kg i.p.): -48.6%

Clc1cc2nc(NC3CCCC3)c3nccn3c2cc1Cl [COMPOUND EX. 22, 4-cyclopentylamino-7,8-dichloroimidazo[1,2-a]quinoxaline]
Ki (A1 receptors [1]): 26.5 nM

Fc1ccc2nc(NC3CCCC3)c3nccn3c2c1 [COMPOUND EX. 25]
Ki (A1 receptors [1]): 84 nM

CNCCCN1c2ccccc2CCc2ccccc21 [DESIPRAMINE, reference compound]
% variation immobility time vs. C. (Forced swim test; 7.5 mg/kg i.p.): -10.4% | % variation immobility time vs. C. (Forced swim test; 30 mg/kg i.p.): -41.4% | % variation immobility time vs. C. (Tail suspension test; 4 mg/kg i.p.): -21.3% | % variation immobility time vs. C. (Tail suspension test; 16 mg/kg i.p.): -62.4%

Cn1c(=O)c2c(ncn2C)n(C)c1=O [caffeine, 1,3,7-trimethylxanthine]
affinity to the adenosine receptors (adenosine receptors): low affinity

Cn1c(=O)c2[nH]cnc2n(C)c1=O [theophylline, 1,3-dimethylxanthine]
affinity to the adenosine receptors (adenosine receptors): low affinity
